Where only a bound is given, the exact number is not on record here.

In this test the target is T1, Dimer of Gag-Pol polyprotein [501-599] (Human immunodeficiency virus 1, UniProt P03367).
T1 construct: 501-599
Kind of test: Protease Inhibition Assay. Particulars: pH 4.7; 30 °C. On the procedure:
HIV-1 protease activity was measured by a continuous fluorometric assay using the internally quenched fluorogenic substrate DABCYL-Ser-Gln-Asn-Tyr-Pro-Ile-Val-Gln-EDANS. The proteolytic activity can be monitored by the increase in fluorescence intensity, and the protease products were analyzed by HPLC.

Compound `O[C@H]([C@H](O)[C@@H](COCc1ccccc1)OCc1ccccc1)[C@@H](COCc1ccccc1)OCc1ccccc1` [(2R,3R,4S,5R)-1,2,5,6-tetrakis(benzyloxy)hexane-3,4-diol] came in with an IC50 above 50 µM.

Consider `O[C@H]([C@H](O)[C@H](COCc1ccccc1)OCc1ccccc1)[C@@H](COCc1ccccc1)OCc1ccccc1` [(2R,3R,4S,5S)-1,2,5,6-tetrakis(benzyloxy)hexane-3,4-diol], for which the IC50 was above 50 µM.

Turning to `O[C@@H]([C@H](O)[C@@H](COc1ccccc1)OCc1ccccc1)[C@@H](COc1ccccc1)OCc1ccccc1` [(2R,3S,4S,5R)-2,5-bis(benzyloxy)-1,6-diphenoxyhexane-3,4-diol], the IC50 is above 50 µM.

The compound `O[C@@H]([C@H](O)[C@@H](Cc1ccccc1)OCc1ccccc1)[C@@H](Cc1ccccc1)OCc1ccccc1` [(2R,3S,4S,5R)-2,5-bis(benzyloxy)-1,6-diphenylhexane-3,4-diol] registered a concentration for half-maximal inhibition (IC50) above 50 µM.

Compound `O[C@@H]([C@H](O)[C@@H](COCc1ccccc1)OCc1ccccc1)[C@H](COCc1ccccc1)OCc1ccccc1` [(2R,3S,4S,5S)-1,2,5,6-tetrakis(benzyloxy)hexane-3,4-diol] registered an IC50 above 50 µM.

Compound `O[C@@H](C[C@@H](COCc1ccccc1)OCc1ccccc1)[C@@H](COCc1ccccc1)OCc1ccccc1` [(2R,3S,5S)-1,2,5,6-tetrakis(benzyloxy)hexan-3-ol] gave an IC50 above 50 µM.

Take `O[C@H]([C@@H](O)[C@H](COCc1ccccc1)OCc1ccccc1)[C@H](COCc1ccccc1)OCc1ccccc1` [(2S,3R,4R,5S)-1,2,5,6-tetrakis(benzyloxy)hexane-3,4-diol]: the IC50 was above 50 µM.

Values taken from BindingDB's records for doi:10.1016/s0960-894x(03)00677-2 (Pharmacor, 2003).
